The target of data set [1] is T1, recombinant human 5-HT6 receptor (Homo sapiens, UniProt P50406).
T1 construct: expressed in transfected cells
The data set can be described thus: Determination of Kb for 5-HT6 receptor (CHO cells, pCRE-Luc reporter, cAMP). It is filed as cell-based. The note with it: 10 μM serotonin, luciferase reporter. On the procedure:
Determination of Kb for 5-HT6 Receptor: A stable CHO cell line expressing recombinant human 5-HT6 receptor and pCRE-Luc reporter system was used for cell based assay. The assay offers a non-radioactive based approach to determine binding of a compound to GPCRs. In this specific assay, the level of intracellular cyclic AMP which is modulated by activation or inhibition of the receptor is measured. The recombinant cells harbor luciferase reporter gene under the control of cAMP response element. The above cells were plated in 96 well clear bottom white plates at a density of 5×10^4 cells/well using Hams F12 medium containing 10% fetal bovine serum (FBS) and incubated overnight at 37° C. and 5% CO2 followed by serum starvation for 18-20 hrs. Increasing concentrations of test compounds were added along with 10 μM serotonin in Opti-MEM to the cells. The incubation was continued at 37° C. in CO2 incubator for 4 hours. After 4 hours cells were lysed using lysis buffer and luciferase assay buffer was added to each well and counts per second were recorded using luminescence counter. From counts per second (CPS) obtained, percent binding was calculated for each well by taking 10 μM 5-HT as 100% bound and vehicle as 0% bound. The percent bound values were plotted against compound concentrations and data were analyzed using a nonlinear, iterative curve-fitting computer program of Graph pad Prism 4 software. The Kb values were calculated using concentration of the agonist used in the assay.
In general terms: A reporter such as luciferase makes a cellular process visible.

The next data set addresses T2, recombinant human 5-HT2A (Homo sapiens, UniProt P28223).
T2 construct: purchased Perkin Elmer ES-313-M400UA
The experiment in a line: Determination of 5-HT2A binding ([3H]-Ketanserin radioligand, membranes). Particulars: human 5-HT2A membranes, [3H]-Ketanserin 1.75 nM. As to the method: Membrane preparation from recombinant human 5-HT2A cell line (Cat no. ES-313-M400UA) and radio ligand Ketanserin Hydrochloride, [Ethylene-^3H]-(R-41468) (Cat no. NET791250UC) were purchased from Perkin Elmer. All other reagents used in buffer preparation were purchased from Sigma. The final ligand concentration was 1.75 nM; non-specific determinant was 1-NP [10 μM] and 5-HT2A membrane protein (5 μg/well). 1-NP was used as a positive control. Reactions were carried out in 67 mM Tris pH 7.6 containing 0.5 mM EDTA buffer for 60 minutes at 25° C. Reaction was stopped by rapid filtration followed by six washes of the binding mixture using 96 well harvest plate (Millipore Cat no. MSFBNXB50) pre coated with 0.33% polyethyleneimine. The plate was dried and the bound radioactivity collected on the filters was determined by scintillation counting using MicroBeta TriLux. Radio ligand binding in the presence of non-labeled compound was expressed as a percent of the total binding and plotted against the log concentration of the compound. Ki values were determined using a nonlinear, iterative curve-fitting computer program of Graph pad Prism 4 software.

Data set [2] is described as follows: Non-clinical toxicology, repeated dose toxicity study in rat. Particulars: rat, female rats. The format is in vivo. As to the method:
(§1) The safety of the example 1 of instant invention and comparator example of U.S. Pat. No. 7,378,415 were evaluated in repeated dose toxicity study in rat.
(§2) Female rats were used as experimental animals for evaluating the toxicity profile of example 1 of instant invention and the comparator example of U.S. Pat. No. 7,378,415.
(§3) During the study, female rats were dosed at incremental doses for minimum of 4 days. Toxicity assessment was done on the mortality, clinical observation, change in the body weight, feed consumption, clinical and anatomical pathology. Systemic exposures were also estimated for both of the compounds. All quantitative variables are compared with control group using one-way ANOVA followed by Dunnet's post-hoc test on GraphPad Prism Software version 4, 2003.

Another data set has as its system Female rats. Described as above. Particulars: repeated dose toxicity. It is filed as in vivo. As to the method: as §1, §2, §3

Counter-ions that a name gives are not always drawn. Where only a bound is given, the exact number is not on record here.

The source of these data is patent publication US10973831B2, “Fluoropiperidine compounds as pure 5-HT 6 receptor antagonists” (SUVEN LIFE SCIENCES LIMITED, priority 2017, dated 2021).

T1 sequence (P50406 whole entry): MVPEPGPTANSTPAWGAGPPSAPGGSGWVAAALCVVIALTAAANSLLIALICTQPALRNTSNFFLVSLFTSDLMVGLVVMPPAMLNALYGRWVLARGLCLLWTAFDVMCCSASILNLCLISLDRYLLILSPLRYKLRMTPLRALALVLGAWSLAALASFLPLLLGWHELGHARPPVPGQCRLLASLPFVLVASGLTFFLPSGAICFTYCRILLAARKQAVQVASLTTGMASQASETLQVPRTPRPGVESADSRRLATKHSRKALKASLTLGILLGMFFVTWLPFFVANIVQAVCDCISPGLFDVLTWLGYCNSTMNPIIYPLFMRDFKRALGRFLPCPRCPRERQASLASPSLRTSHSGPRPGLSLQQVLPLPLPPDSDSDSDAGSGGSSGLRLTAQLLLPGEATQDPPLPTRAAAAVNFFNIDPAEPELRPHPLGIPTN
T2 sequence (P28223 whole entry): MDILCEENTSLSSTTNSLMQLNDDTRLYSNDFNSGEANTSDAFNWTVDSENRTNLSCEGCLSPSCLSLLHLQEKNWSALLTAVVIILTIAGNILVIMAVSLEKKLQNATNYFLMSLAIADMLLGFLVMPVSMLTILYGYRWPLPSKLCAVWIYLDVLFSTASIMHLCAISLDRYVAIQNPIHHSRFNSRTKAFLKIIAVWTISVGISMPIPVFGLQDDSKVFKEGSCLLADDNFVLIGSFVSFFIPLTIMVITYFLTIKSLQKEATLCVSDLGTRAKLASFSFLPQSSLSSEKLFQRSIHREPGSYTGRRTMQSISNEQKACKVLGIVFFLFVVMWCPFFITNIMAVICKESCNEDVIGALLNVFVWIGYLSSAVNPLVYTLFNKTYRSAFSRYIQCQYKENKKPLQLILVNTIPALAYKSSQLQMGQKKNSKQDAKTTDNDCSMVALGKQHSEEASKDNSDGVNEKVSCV

Turning to `O=S(=O)(c1ccccc1)c1ccc2c(c1)OCCN2C1CCNCC1F` (single isomer, unassigned; peak iv) [Example 4, 7-Phenylsulfonyl-4-(3-fluoropiperidin-4-yl)-3,4-dihydro-2H-benzo[1,4]oxazine hydrochloride (Peak IV)], the Kb in data set [1] is 0.4 nM. On recombinant human 5-HT2A, the Ki amounted to 3930 nM.
`O=S(=O)(c1ccccc1)c1ccc2c(c1)OCCN2C1CCNCC1F` (single isomer, unassigned; peak i) [Example 2, 7-Phenylsulfonyl-4-(3-fluoropiperidin-4-yl)-3,4-dihydro-2H-benzo[1,4]oxazine hydrochloride (Peak I)]: the Kb in data set [1] was 0.4 nM. Also, the Ki at recombinant human 5-HT2A was found to be 262 nM.
In the same order, the values of `O=S(=O)(c1ccccc1)c1ccc2c(c1)N(C1CCNCC1F)CCO2` (single isomer, unassigned; peak iv) [Example 17, 6-Phenylsulfonyl-4-(3-fluoropiperidin-4-yl)-3,4-dihydro-2H-benzo[1,41]oxazine (Peak IV)] are 1.79 nM and 907 nM.
Turning to `O=S(=O)(c1ccccc1)c1ccc2c(c1)N(C1CCNCC1F)CCO2` (single isomer, unassigned; peak ii) [Example 15, 6-Phenylsulfonyl-4-(3-fluoropiperidin-4-yl)-3,4-dihydro-2H-benzo[1,41]oxazine (Peak II)], in data set [1], the Kb came out at 1.25 nM. On recombinant human 5-HT2A, the Ki was 1660 nM.
For the compound `O=S(=O)(c1ccccc1)c1ccc2c(c1)OCCN2C1CCNCC1F` (single isomer, unassigned; peak ii) [Example 3, 7-Phenylsulfonyl-4-(3-fluoropiperidin-4-yl)-3,4-dihydro-2H-benzo[1,4]oxazine hydrochloride (Peak II)], the Kb in data set [1] came to 0.09 nM. At recombinant human 5-HT2A, the Ki came out at 113 nM.
The corresponding values for `O=S(=O)(c1cccc(F)c1)c1ccc2c(c1)OCCN2C1CCNCC1F` (single isomer, unassigned; peak iii) [Example 7, 7-(3-Fluorophenylsulfonyl)-4-(3-fluoropiperidin-4-yl)-3,4-dihydro-2H-benzo[1,4]oxazine hydrochloride (Peak III)] are under 0.1 nM and 19.7 nM.
Turning to `O=S(=O)(c1ccccc1)c1ccc2c(c1)OCCN2C1CCNCC1` [Comparator Example, 7-Phenylsulfonyl-4-(piperidin-4-yl)-3,4-dihydro-2H-benzo[1,4]oxazine, reference compound], the Kb in data set [1] came to 0.1 nM. Besides, the inhibitory constant (Ki) on recombinant human 5-HT2A turned out to be 9.02 nM. In data set [2] (in vivo, 7-Day repeat tox), the NOAEL at 7 days amounted to 30 mg/kg. In addition, the MTD in data set [2] (in vivo, repeated incremental doses, read-out: Maximum Tolerated Dose) is 30 mg/kg. Moreover, the AUC in data set [2] (plasma, repeated dose toxicity study, read-out: AUC (systemic exposure in toxicity study)) amounted to 4050 ng·h/mL. For the same compound, the peak concentration (Cmax) in data set [2] (plasma, repeated dose toxicity study, read-out: Cmax (systemic exposure in toxicity study)) was 280 ng/mL. Moreover, the “Findings (mortality)” value is given as “Mortality at ≥” in the data set on Female rats (listed as Comparator example of U.S. Pat. No. 7,378,415) and “deaths were observed at doses >100 mg/kg on second day of dosing” in the data set on Female rats (listed as comparator example of U.S. Pat. No. 7,378,415).
For `O=S(=O)(c1cccc(F)c1)c1ccc2c(c1)OCCN2C1CCNCC1F` (single isomer, unassigned; peak iv) [Example 8, 7-(3-Fluorophenylsulfonyl)-4-(3-fluoropiperidin-4-yl)-3,4-dihydro-2H-benzo[1,4]oxazine hydrochloride (Peak IV)], the Kb in data set [1] was 19 nM. The Ki on recombinant human 5-HT2A was found to be 804 nM.

Broadly, the Ki is the dissociation constant of the complex between target and ligand, obtained from inhibition or displacement. The term NOAEL denotes the highest tested level that showed no adverse finding. What is called AUC is the area under the concentration-time curve, a measure of exposure. As usually defined, the Cmax is the highest concentration seen after dosing.
